In ChEMBL document CHEMBL1201862, “PubChem BioAssay data set” (2004):
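In this assay, cells in 96-well plates receive the compound at five concentrations for 48 hours. Endpoints are linearly interpolated between the surrounding concentrations. Abbreviation: GI50, concentration required for 50% inhibition of growth.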 Active and inactive are the calls of the source. No stated cut-off is given here; in the data, active = GI50 up to about 1.1 µM and inactive = higher.

Tests used:
Assay in all cases: NCI tumour cell line growth inhibition, 48 h
[1] = tested on: SK-OV-3
[2] = tested on: OVCAR-4
[3] = tested on: SF-539
[4] = tested on: HCC 2998
[5] = tested on: SNB-75
[6] = tested on: SF-268
[7] = tested on: NCI-H460
[8] = tested on: KM12
[9] = tested on: NCI-H226
[10] = tested on: UO-31
[11] = tested on: K562
[12] = tested on: RXF 393
[13] = tested on: OVCAR-8
[14] = tested on: CCRF-CEM
[15] = tested on: SF-295
[16] = tested on: HOP-92
[17] = tested on: HT-29
[18] = tested on: A549
[19] = tested on: SN12C
[20] = tested on: IGROV-1

| Compound | GI50 [1] | GI50 [2] | GI50 [3] | GI50 [4] | GI50 [5] | GI50 [6] | GI50 [7] | GI50 [8] | GI50 [9] | GI50 [10] | GI50 [11] | GI50 [12] | GI50 [13] | GI50 [14] | GI50 [15] | GI50 [16] | GI50 [17] | GI50 [18] | GI50 [19] | GI50 [20] |
| --- | --- | --- | --- | --- | --- | --- | --- | --- | --- | --- | --- | --- | --- | --- | --- | --- | --- | --- | --- | --- |
| O=C(Nc1ccc(Cl)c(Cl)c1)C(=O)C(C(=O)c1ccccc1F)C1OC(=O)c2ccccc21 (stereo not given) | 27.7 µM (inactive) | 22.3 µM (inactive) | 11.1 µM (inactive) | 17.9 µM (inactive) | 18.6 µM (inactive) | 23.7 µM (inactive) | 18.6 µM (inactive) | 20 µM (inactive) | 17.9 µM (inactive) | 18.8 µM (inactive) | 22 µM (inactive) | 20.7 µM (inactive) | 15.2 µM (inactive) | 13.8 µM (inactive) | 37.5 µM (inactive) | 51.6 µM (inactive) | 34.4 µM (inactive) | 27.8 µM (inactive) | 19.2 µM (inactive) | 27.4 µM (inactive) |
| NCC(Cl)C(O)c1c[nH]c(N)n1 (stereo not given) | 0.533 µM (active) | 0.668 µM (active) | 0.473 µM (active) | 0.625 µM (active) | 1.84 µM (inactive) | 1.38 µM (inactive) | 2.14 µM (inactive) | 0.117 µM (active) | 2.15 µM (inactive) | 0.822 µM (active) | 2.38 µM (inactive) | 1.19 µM (inactive) | 0.546 µM (active) | 1.58 µM (inactive) | 4.31 µM (inactive) | 5.46 µM (inactive) | 0.454 µM (active) | 0.136 µM (active) | 2.12 µM (inactive) | 0.245 µM (active) |
| O=C(NC(Cc1ccc(Cl)cc1)C(=O)O)c1ccc(I)cc1 (stereo not given) | > 100 µM (inactive) | > 100 µM (inactive) | > 100 µM (inactive) | 3.42 µM (inactive) | 86.3 µM (inactive) | > 100 µM (inactive) | > 100 µM (inactive) | > 100 µM (inactive) | > 100 µM (inactive) | > 100 µM (inactive) | > 100 µM (inactive) | > 100 µM (inactive) | > 100 µM (inactive) | > 100 µM (inactive) | > 100 µM (inactive) | > 83.4 µM (inactive) | > 100 µM (inactive) | > 100 µM (inactive) | > 100 µM (inactive) | > 100 µM (inactive) |
| CC1CC(c2ccccc2)=Nc2ccccc2S1 (stereo not given) | > 100 µM (inactive) | > 100 µM (inactive) | > 100 µM (inactive) | > 100 µM (inactive) | > 100 µM (inactive) | > 100 µM (inactive) | > 100 µM (inactive) | > 100 µM (inactive) | > 100 µM (inactive) | > 100 µM (inactive) | 79.4 µM (inactive) | > 100 µM (inactive) | > 100 µM (inactive) | 34.7 µM (inactive) | > 100 µM (inactive) | > 100 µM (inactive) | > 100 µM (inactive) | > 100 µM (inactive) | > 100 µM (inactive) | > 100 µM (inactive) |
| Cn1c(=O)c(Cl)c(N=[N+]=[N-])c2ccccc21 | > 100 µM (inactive) | 55.7 µM (inactive) | > 100 µM (inactive) | > 100 µM (inactive) | 25.8 µM (inactive) | > 100 µM (inactive) | > 100 µM (inactive) | 0.0324 µM (active) | 39.8 µM (inactive) | > 100 µM (inactive) | 47.1 µM (inactive) | 69.2 µM (inactive) | > 100 µM (inactive) | 55.7 µM (inactive) | > 100 µM (inactive) | 84.1 µM (inactive) | > 100 µM (inactive) | 94.4 µM (inactive) | 56.5 µM (inactive) | > 100 µM (inactive) |
| COc1cc(C2c3cc4c(cc3[C@@H](Nc3cccc(CO)c3)C3COC(=O)[C@H]23)OCO4)cc(OC)c1O (stereo not given in full) | 1.61 µM (inactive) | 6.84 µM (inactive) | 0.352 µM (active) | 1.73 µM (inactive) | 0.94 µM (active) | 0.923 µM (active) | < 0.01 µM (active) | 1.72 µM (inactive) | 0.308 µM (active) | 0.541 µM (active) | 0.178 µM (active) | 1.27 µM (inactive) | 1.33 µM (inactive) | 0.078 µM (active) | 0.218 µM (active) | 0.569 µM (active) | 0.984 µM (active) | < 0.0281 µM (active) | 0.558 µM (active) | 1.62 µM (inactive) |
